Laboratory results as given in US20190010158A1, “ANTITUMOR EFFECT POTENTIATOR COMPRISING PYRROLOPYRIMIDINE COMPOUND” (TAIHO PHARMACEUTICAL CO., LTD, priority 2015, published 2019).
Each block holds one compound with its values, some of them ahead of it.

How the values were obtained:
[1] = system: tumor cell lines shown in Table 44; test: Example 12: combined use with platinum-based antitumor agent, cell growth inhibition test (IC50 ratio, CI); details: for IC50 Ratio: IC50 of Reference Example Compound 55 : IC50 of other compound = 1:value; for CI: at ED50; for Comprehensive Evaluation: combined use with Reference Example Compound 55
U266B1 = test: Example 1: combined use with proteasome inhibitor, cell growth inhibition test (IC50 ratio, CI), U266B1; assay type: cell-based, human; details: for CI: at ED50
[2] = system: tumor cell lines shown in Table 48; test: Example 14: combined use with alkylating agent, cell growth inhibition test (IC50 ratio, CI); assay type: cell-based; details: for IC50 Ratio: IC50 of Reference Example Compound 55 : IC50 of other compound = 1:value; for CI: at ED50; for Comprehensive Evaluation: combined use with Reference Example Compound 55
[3] = system: tumor cell lines shown in Table 30; test: Example 5: combined use with steroid, cell growth inhibition test (IC50 ratio, CI); details: MM.1S; for IC50 Ratio: IC50 of Reference Example Compound 55 : IC50 of other compound = 1:value; for CI: at ED50; for Comprehensive Evaluation: combined use with Reference Example Compound 55
[4] = system: tumor cell lines shown in Table 46; test: Example 13: combined use with microtubule inhibitor, cell growth inhibition test (IC50 ratio, CI); assay type: cell-based; details: A549; for IC50 Ratio: IC50 of Reference Example Compound 55 : IC50 of other compound = 1:value; for CI: at ED50; for Comprehensive Evaluation: combined use with Reference Example Compound 55
[5] = system: tumor cell lines shown in Table 32; test: Example 6: combined use with immunomodulator, cell growth inhibition test (IC50 ratio, CI); assay type: cell-based; details: MM.1S; for IC50 Ratio: IC50 of Reference Example Compound 55 : IC50 of other compound = 1:value; for CI: at ED50; for Comprehensive Evaluation: combined use with Reference Example Compound 55
[6] = MV4-11, Reference Example Compound 55:other compound 1:3000
[7] = MV4-11, Reference Example Compound 55:other compound 1:9000
[8] = Reference Example Compound 55:other compound 1:1
[9] = Reference Example Compound 55:other compound 1:10

SMILES: N.N.O=C([O-])C1(C(=O)[O-])CCC1.[Pt+2] [Carboplatin, carboplatin]
- IC50 Ratio ([1]; A549): 38
- CI ([1]; A549, Reference Example Compound 55:other compound 1:17): 0.41
- CI ([1]; A549, Reference Example Compound 55:other compound 1:50): 0.87
- Comprehensive Evaluation ([1]; A549): Slight

SMILES: CC(C)C[C@H](NC(=O)[C@H](CCc1ccccc1)NC(=O)CN1CCOCC1)C(=O)N[C@@H](Cc1ccccc1)C(=O)N[C@@H](CC(C)C)C(=O)[C@@]1(C)CO1 [Carfilzomib, carfilzomib]
- IC50 Ratio (U266B1; IC50 of Reference Example Compound 55 : IC50 of other compound = 1:value): 0.30
- CI (U266B1; Reference Example Compound 55:other compound 1:015): 0.64
- CI (U266B1; Reference Example Compound 55:other compound 1:045): 0.66
- Comprehensive Evaluation (U266B1; combined use with Reference Example Compound 55): Synergism (0.3-0.7)

SMILES: N.N.[Cl][Pt][Cl] [Cisplatin, cisplatin]
- IC50 Ratio ([1]; HCT116): 343
- CI ([1]; HCT116, Reference Example Compound 55:other compound 1:333): 0.44
- CI ([1]; HCT116, Reference Example Compound 55:other compound 1:1000): 0.72
- Comprehensive Evaluation ([1]; HCT116): Moderate

SMILES: CN(C)/N=N/c1[nH]cnc1C(N)=O [Dacarbazine, dacarbazine]
- IC50 Ratio ([2]; MV4-11): 6582
- CI [2, 6]: 0.92
- CI [2, 7]: 0.95
- Comprehensive Evaluation ([2]; MV4-11): Additive (0.9-1.10)

SMILES: C=C1C[C@@H]2CC[C@@]34C[C@H]5O[C@H]6[C@@H](O3)[C@H]3O[C@H](CC[C@@H]3O[C@H]6[C@H]5O4)CC(=O)C[C@@H]3[C@@H](OC)[C@@H](C[C@H](O)CN)O[C@H]3C[C@H]3O[C@@H](CC[C@@H]1O2)C[C@@H](C)C3=C [Eribulin, eribulin]
- IC50 Ratio [4]: 0.01
- CI ([4]; Reference Example Compound 55:other compound 1:0.01): 1.02
- CI ([4]; Reference Example Compound 55:other compound 1:0.03): 0.89
- Comprehensive Evaluation [4]: Additive (0.9-1.10)

SMILES: O=P1(NCCCl)OCCCN1CCCl (stereo not shown) [Ifosfamide, ifosfamide]
- IC50 Ratio ([2]; MV4-11): 6315
- CI [2, 6]: 0.57
- CI [2, 7]: 0.60
- Comprehensive Evaluation ([2]; MV4-11): Synergism (0.3-0.7)

SMILES: Nc1cccc2c1CN(C1CCC(=O)NC1=O)C2=O (stereo not shown) [Lenalidomide, lenalidomide]
- IC50 Ratio [5]: 14
- CI [5, 9]: 0.75
- CI ([5]; Reference Example Compound 55:other compound 1:30): 0.69
- Comprehensive Evaluation [5]: Moderate

SMILES: O=C1[O][Pt]2([NH][C@@H]3CCCC[C@H]3[NH]2)[O]C1=O [Oxaliplatin, oxaliplatin]
- IC50 Ratio ([1]; HL-60): 132
- CI ([1]; HL-60, Reference Example Compound 55:other compound 1:100): 0.65
- CI ([1]; HL-60, Reference Example Compound 55:other compound 1:300): 0.70
- Comprehensive Evaluation ([1]; HL-60): Synergism (0.3-0.7)

SMILES: Nc1cccc2c1C(=O)N(C1CCC(=O)NC1=O)C2=O (stereo not shown) [Poma1idomide, pomalidomide]
- IC50 Ratio [5]: 3
- CI [5, 8]: 0.81
- CI ([5]; Reference Example Compound 55:other compound 1:3): 0.66
- Comprehensive Evaluation [5]: Moderate

Second part, led by results:

- IC50 Ratio [3]: 0.4
SMILES: C[C@@H]1C[C@H]2[C@@H]3CCC4=CC(=O)C=C[C@]4(C)[C@@]3(F)[C@@H](O)C[C@]2(C)[C@@]1(O)C(=O)CO [Dexamethasone, dexamethasone]
- CI ([3]; Reference Example Compound 55:other compound 1:0.3): 0.51
- CI [3, 8]: 0.39
- Comprehensive Evaluation [3]: Synergism (0.3-0.7)

- IC50 Ratio [4]: 0.04
SMILES: CC(=O)O[C@H]1C(=O)[C@@]2(C)[C@H]([C@H](OC(=O)c3ccccc3)[C@]3(O)C[C@H](OC(=O)[C@H](O)[C@@H](NC(=O)c4ccccc4)c4ccccc4)C(C)=C1C3(C)C)[C@]1(OC(C)=O)CO[C@@H]1C[C@@H]2O [Paclitaxel, paclitaxel]
- CI ([4]; Reference Example Compound 55:other compound 1:0.02): 0.98
- CI ([4]; Reference Example Compound 55:other compound 1:0.06): 0.77
- Comprehensive Evaluation [4]: Additive (0.9-1.10)

- IC50 Ratio [3]: 8.3
SMILES: C[C@]12C=CC(=O)C=C1CC[C@@H]1[C@@H]2[C@@H](O)C[C@@]2(C)[C@H]1CC[C@]2(O)C(=O)CO [Prednisolone, prednisolone]
- CI ([3]; Reference Example Compound 55:other compound 1:3.3): 0.54
- CI [3, 9]: 0.44
- Comprehensive Evaluation [3]: Synergism (0.3-0.7)

- IC50 Ratio [5]: 6603
SMILES: O=C1CCC(N2C(=O)c3ccccc3C2=O)C(=O)N1 (stereo not shown) [Thalidomide, thalidomide]
- CI ([5]; Reference Example Compound 55:other compound 1:900 (only ratio calculated)): 0.63
- Comprehensive Evaluation [5]: Synergism (0.3-0.7)

- IC50 Ratio ([2]; HOS): 0.2
SMILES: COc1cc2c(cc1O)CCN[C@]21CS[C@@H]2c3c(OC(C)=O)c(C)c4c(c3[C@H](COC1=O)N1[C@@H]2[C@H]2c3c(cc(C)c(OC)c3O)C[C@@H]([C@@H]1O)N2C)OCO4 [Trabectedin, trabectedin]
- CI ([2]; HOS, Reference Example Compound 55:other compound 1:0.1): 0.83
- CI ([2]; HOS, Reference Example Compound 55:other compound 1:0.3): 1.01
- Comprehensive Evaluation ([2]; HOS): Additive (0.9-1.10)
